Laboratory results as given in PMC10452847 (Cancers, 2023).

Assays:
RMS559 xenograft [1] = system: RMS559 xenograft; design: method as in PMID 36097178; details: RMS559 xenograft models; twice daily dosing, nude mice; cited from earlier work
RMS559 xenograft [2] = assay: triple combination xenograft efficacy study; assay type: in vivo, NSG mice; details: for median survival: futibatinib 10 mg/kg oral M-F 3 weeks, irinotecan 6 mg/kg iv once, vincristine 0.4 mg/kg iv once, vehicle 11
SCMC xenograft [3] = assay: futibatinib single agent xenograft efficacy study; details: 5-25 mg/kg daily (SID) oral gavage, three weeks, vs vehicle
[4] = two-drug combination tolerability study; assay type: in vivo, mice; details: futibatinib oral M-F three weeks, irinotecan iv Monday for three weeks, vincristine iv once
Procedure: Figure A4 Two-drug combination tolerability study. (A) Schematic of tolerability study. […] Irinotecan was given via tail vein injection at two dosages (75 mg/kg and 50 mg/kg) on Monday for three weeks. (B) Relative body weights of mice treated with the futibatinib-vincristine or futibatinib-irinotecan combinations.

SCMC xenograft [5] = assay: two-drug combination xenograft efficacy study; assay type: in vivo, NSG mice; details: for Days (survival, inset of Figure 4): SCMC xenograft, futibatinib 15 mg/kg, irinotecan 50 mg/kg decreased to 25 mg/kg, vincristine 0.4 mg/kg, vehicle 30
[6] = system: phosphorylation of FGFR4 and ERK1/2 in RMS559; assay: Western blot of RMS559 treated with futibatinib; assay type: cell-based, human; details: increasing concentrations, 6 h
Procedure: Cells were collected with a cell scraper, then pelleted by centrifugation, washed with ice-cold PBS, and lysed in RIPA buffer with 1% HALT Protease and Phosphatase inhibitors. Lysates were sonicated to shear genomic DNA and clarified by centrifugation at 18,000× g for 20 min. The protein concentration of the resulting supernatant was determined by BCA assay. 20 μg of protein was run on NuPage 4–12% BisTris gels (Invitrogen, Carlsbad, CA, USA) and transferred to PVDF membranes (Invitrogen). Membranes were blocked in 5% nonfat dried milk in TBST for 1 h at room temperature and incubated with primary antibody overnight at 4 °C. HRP-conjugated anti-rabbit secondary antibody was used to probe the primary antibody. Protein was visualized using Amersham ECL Western Blotting Detection Reagent (Amersham, UK). The following antibodies were used: pFGFR4 (ab192589, Abcam, Cambridge, UK), FGFR4 (8562, Cell Signaling Technology (CST), Danvers, MA, USA), pERK1/2 (4370, CST), ERK1/2 (4695, CST), and GAPDH (8884, CST). Relative band intensity was quantified in Image Lab software (Version 5.2.1, Bio-Rad, Philadelphia, PA, USA)

RMS559 xenograft [7] = assay: futibatinib single agent xenograft efficacy study; details: 5-25 mg/kg daily (SID) oral gavage, three weeks, vs vehicle
RH4 xenograft [8] = assay: futibatinib single agent xenograft efficacy study; details: 5-25 mg/kg daily (SID) oral gavage, three weeks, vs vehicle
RH4 xenograft [9] = assay: two-drug combination xenograft efficacy study; assay type: in vivo, NSG mice; details: futibatinib 15 mg/kg, irinotecan 25 mg/kg, vincristine 0.4 mg/kg, vehicle 39
RMS559 xenograft [10] = assay: two-drug combination xenograft efficacy study; details: for median survival: futibatinib 15 mg/kg, irinotecan 25 mg/kg, vincristine 0.4 mg/kg, vehicle 23
in vivo = details: NOD SCID Gamma (NSG), mouse, plasma, po, 25 mg/kg, 25 mg/kg oral gavage, single dose, SCMC tumor-bearing mice
[11] = system: advanced solid tumors with FGFR aberrations; details: 197 patients with advanced solid tumors with FGFR aberrations; cited from earlier work
[12] = system: mutant FGFR4-driven RMS tumor; design: method as in PMID 24124571; details: cited from earlier work

Row | SMILES | median survival (RMS559 xenograft [2]) | maximum tolerated dosages for the drug combinations [4] | Days (survival, inset of Figure 4) (SCMC xenograft [5]) | Days (survival, inset of Figure 4) (RH4 xenograft [9]) | median survival (RMS559 xenograft [10]) | other results
1 | COCCNc1cc(NC(=O)N2CCCc3cc(CN4CCN(C)CC4=O)c(C=O)nc32)ncc1C#N [FGF401] | – | – | – | – | – | effect on tumor progression (RMS559 xenograft [1]): effective at delaying tumor progression
2 | C=CC(=O)N1CC[C@H](n2nc(C#Cc3cc(OC)cc(OC)c3)c3c(N)ncnc32)C1 [futibatinib] | 15 days | 15 mg/kg | 33 days | 36 days | 23 days | average tumor volume (RMS559 xenograft [2]; day 11 of treatment, futibatinib 10 mg/kg oral M-F, vehicle 1532): 1072 mm^3; effect in delaying tumor growth or prolonging survival (SCMC xenograft [3]): no significant effect; phosphorylation of FGFR4 and ERK1/2 (western blot) [6]: inhibited phosphorylation of FGFR4 and a downstream target ERK1/2 in a dose-dependent manner; effect in delaying tumor growth or prolonging survival (RMS559 xenograft [7]): no significant effect; effect in delaying tumor growth or prolonging survival (RH4 xenograft [8]): no significant effect; half-life (in vivo): ~4 h; objective response rate (ORR) [11]: 13.7%
3 | CCc1c2c(nc3ccc(OC(=O)N4CCC(N5CCCCC5)CC4)cc13)-c1cc3c(c(=O)n1C2)COC(=O)[C@]3(O)CC [irinotecan] | 15 days | 50 mg/kg | 48 days | 51.5 days | 29 days | toxicity of dose (SCMC xenograft [5]; irinotecan 50 mg/kg iv on Monday, SCMC xenograft study): toxic
4 | Cc1ccc(C(=O)Nc2ccc(CN3CCN(C)CC3)c(C(F)(F)F)c2)cc1C#Cc1cnc2cccnn12 [ponatinib] | – | – | – | – | – | effect on tumor growth in mice [12]: inhibit mutant FGFR4-driven RMS tumor growth
5 | CC[C@]1(O)C[C@H]2CN(CCc3c([nH]c4ccccc34)[C@@](C(=O)OC)(c3cc4c(cc3OC)N(C=O)[C@H]3[C@@](O)(C(=O)OC)[C@H](OC(C)=O)[C@]5(CC)C=CCN6CC[C@]43[C@@H]65)C2)C1 [vincristine] | 15 days | 0.4 mg/kg | 37 days | 41 days | 23 days | average tumor volume (RMS559 xenograft [10]; day 18 of treatment, futibatinib 15 mg/kg oral M-F 3 weeks, irinotecan 25 mg/kg iv Monday 3 weeks, vincristine 0.4 mg/kg iv once): 1016 mm^3
